According to patent US20150209313A1 (priority 2014, published 2015):
“Also recorded” adds a separate entry of the source. Read-outs that look alike come from different tables or passages of the source.

Columns and labels:
[1] = target: neuraminidase, Influenza Virus A/California/07/2009 H1N1 (Oseltamivir sensitive) (Influenza A virus (A/California/07/2009(H1N1)), UniProt C3W6G3); type: biochemical
[2] = test system: Influenza Virus A/California/07/2009 H1N1; type: cell-based
[3] = test system: Influenza Virus A/Maryland/04/2011 H1N1; type: cell-based

CCOC(=O)C1=C[C@@H](OC(CC)CC)[C@H](NC(C)=O)[C@@H](N)C1 [Oseltamivir]
Average Fluorescence ([1]; 0.005 nM): 66385.00
Average Fluorescence ([1]; 0.05 nM): 56340.00
Average Fluorescence ([1]; 0.5 nM): 32060.00
Average Fluorescence ([1]; 5 nM): 7802.00
Average Fluorescence ([1]; 50 nM): 1215.00
Average Fluorescence ([1]; 500 nM): 354.00
Average Fluorescence ([1]; 5,000 nM): 179.00
Average Fluorescence ([1]; 50,000 nM): 365.00
plaque inhibitory effect (in words) [2]: sensitive to this drug to 1 μM; also recorded: inhibitory effects
plaque inhibitory effect (in words) [3]: only partially sensitive; also recorded: reduced oseltamivir susceptibility
